Results as given in the Deep4Chem optical property database.
Values joined by “and” are separate entries in the source; they are usually repeats but may differ in a detail not shown here. Equal values may be shown once.

Assay: photoluminescence quantum yield (fraction); solvent given as SMILES

N#Cc1cc(-c2ccc(N3c4ccccc4Oc4ccccc43)cc2)c(-c2ccc(N3c4ccccc4Oc4ccccc43)cc2)cc1C#N
photoluminescence quantum yield (in Cc1ccccc1): 0.42
photoluminescence quantum yield (in c1cc(-c2cccc(-n3c4ccccc4c4ccccc43)c2)cc(-n2c3ccccc3c3ccccc32)c1): 0.77

CC1(C)CC(/N=C/c2ccc3ccc4cccc5ccc2c3c45)CC(C)(C)N1[O]
photoluminescence quantum yield (in C1CCCCC1): 0.11
photoluminescence quantum yield (in CC#N): 0.01
photoluminescence quantum yield (in CO): 0.03
photoluminescence quantum yield (in ClC(Cl)Cl): 0.02

CN1C(=O)/C(=C/c2ccncc2)N=C1/C=C/c1ccccc1
photoluminescence quantum yield (in C1COCCO1): 0.029
photoluminescence quantum yield (in CC#N): 0.011
photoluminescence quantum yield (in CCO): 0.099
photoluminescence quantum yield (in CCOC(C)=O): 0.017
photoluminescence quantum yield (in O): 0.004

N#Cc1c(-n2c3ccccc3c3cc(Br)ccc32)c(-n2c3ccccc3c3cc(Br)ccc32)c(C#N)c(-n2c3ccccc3c3cc(Br)ccc32)c1-n1c2ccccc2c2cc(Br)ccc21
photoluminescence quantum yield (in Cc1ccccc1): 0.53

N#Cc1nc(N(Cc2ccccc2I)Cc2ccccc2I)c(C#N)nc1N(Cc1ccccc1I)Cc1ccccc1I
photoluminescence quantum yield (in ClC(Cl)Cl): 0.61

CN1c2ccccc2CCc2ccccc21
photoluminescence quantum yield (in CC#N): 0.031
photoluminescence quantum yield (in CO): 0.027

N[C@@H](Cn1nnc2cc(-c3ccc(-c4ccsc4)cc3)ccc21)C(=O)O
photoluminescence quantum yield (in CO): 0.03

CCC/N=C/c1cc2ccc(N(C)C)cc2cc1OC
photoluminescence quantum yield (in CS(C)=O): 0.61

CCCCCCc1cc2c3c(c1)c(=C1c4ccccc4S(=O)(=O)c4ccccc41)c1cc(CCCCCC)cc4c1N3c1c(cc(CCCCCC)cc1c4=C1c3ccccc3S(=O)(=O)c3ccccc31)c2=C1c2ccccc2S(=O)(=O)c2ccccc21
photoluminescence quantum yield (in ClCCl): 0.47

COc1ccc(/C=C/C2=NC(=C\c3ccncc3)/C(=O)N2C)cc1
photoluminescence quantum yield (in C1COCCO1): 0.005
photoluminescence quantum yield (in CC#N): 0.0026
photoluminescence quantum yield (in CCO): 0.0027
photoluminescence quantum yield (in CCOC(C)=O): 0.003
photoluminescence quantum yield (in O): 0.0029

C(#Cc1ccccc1)C(C#Cc1ccccc1)=Cc1ccc(C=C(C#Cc2ccccc2)C#Cc2ccccc2)s1
photoluminescence quantum yield (in ClC(Cl)Cl): 0.09 and 0.08

COC(=O)[C@@]12N=N[C@@](C(=O)OC)(C3C4CCC(C4)C31)[C@@H]1CC12 (stereo not given in full)
photoluminescence quantum yield (in CC#N): 0.041

S=P1(c2ccccc2)C(c2ccccc2)=Cc2cc3ccccc3cc21 (stereo not given)
photoluminescence quantum yield (in ClCCl): 0.001

CCN(CC)c1ccc2cc(-c3nc4cc(C(=O)Nc5ccccc5Cl)ccc4o3)c(=O)oc2c1
photoluminescence quantum yield (in ClCCl): 0.23

C(=C\c1c2ccccc2cc2ccccc12)/c1cccc2ccccc12
photoluminescence quantum yield (in CC1CCCCC1): 0.43
photoluminescence quantum yield (in CC#N): 0.35

COc1ccc(C2=N/C(=C\c3ccc(C#N)cc3)C(=O)O2)cc1OC
photoluminescence quantum yield (in C1COCCO1): 0.421

C=CC1CN2CCC1CC2[C@@H](OCc1ccccc1)c1ccnc2ccc(O)cc12 (stereo not given in full)
photoluminescence quantum yield (in C1CCOC1): 0.12
photoluminescence quantum yield (in CC#N): 0.016
photoluminescence quantum yield (in CCCC#N): 0.021
photoluminescence quantum yield (in Cc1ccccc1): 0.06
photoluminescence quantum yield (in ClCCl): 0.035

c1cc2ccc1CCCc1ccc(c3nsnc13)CCC2
photoluminescence quantum yield (in C1CCCCC1): 0.51
photoluminescence quantum yield (in CC#N): 0.19
photoluminescence quantum yield (in ClC(Cl)Cl): 0.49

CC(=O)Nc1cc2ccc3cccc4ccc(c1)c2c34
photoluminescence quantum yield (in CC#N): 0.09
photoluminescence quantum yield (in CCCCOCCCC): 0.1
photoluminescence quantum yield (in CO): 0.07

N#C/C(=C\c1ccc(C#N)cc1)c1nc(-c2ccc(Cl)cc2)cs1
photoluminescence quantum yield (in CC#N): 0.18

CCOC(=O)c1ccc(/C=C/C2=[N+]3C(=C(c4ccccc4)c4ccc(/C=C/c5ccc(C(=O)OCC)o5)n4[B-]3(F)F)C=C2)o1
photoluminescence quantum yield (in ClC(Cl)Cl): 0.29

c1cc2c3c(cccc3c1)-c1cc3c(ccc4ccccc43)cc1-2
photoluminescence quantum yield (in CCCCCCC): 0.65

CCN(CC)c1ccc(C2=C3C(C)=CC(/C=C/c4ccc(OCC(=O)OC)cc4)=[N+]3[B-](F)(F)n3c(C)cc(C)c32)cc1
photoluminescence quantum yield (in CO): 0.87

c1ccc(-c2cc(-c3ccc(N4c5ccccc5C(c5ccccc5)(c5ccccc5)c5ccccc54)cn3)nc(-c3ccccc3)n2)cc1
photoluminescence quantum yield (in O=P(c1ccccc1)(c1ccccc1)c1ccccc1Oc1ccccc1P(=O)(c1ccccc1)c1ccccc1): 0.86

COc1ccc(-c2cn3ccc[n+]3[n-]2)cc1
photoluminescence quantum yield (in ClCCl): 0.062

CCCCC(CC)CN1C(=O)c2cccc3c(C#Cc4ccc(N(c5ccc(C#Cc6ccc7c8c(cccc68)C(=O)N(CC(CC)CCCC)C7=O)cc5)c5ccc(C#Cc6ccc7c8c(cccc68)C(=O)N(CC(CC)CCCC)C7=O)cc5)cc4)ccc(c23)C1=O (stereo not given)
photoluminescence quantum yield (in C1CCCCC1): 0.064
photoluminescence quantum yield (in C1CCOC1): 0.027
photoluminescence quantum yield (in CC#N): 0.111
photoluminescence quantum yield (in Cc1ccccc1): 0.053
photoluminescence quantum yield (in ClC(Cl)Cl): 0.041

N#Cc1c(C#N)c2ccccc2c2ccccc12
photoluminescence quantum yield (in ClC(Cl)Cl): 0.17

COC(=O)c1ccc(C#Cc2ccc(N(C)C)cc2)cc1
photoluminescence quantum yield (in C1CCCCC1): 0.351
photoluminescence quantum yield (in C1CCOC1): 0.15
photoluminescence quantum yield (in C1COCCO1): 0.303
photoluminescence quantum yield (in CC1CCCO1): 0.248
photoluminescence quantum yield (in CC#N): 0.134
photoluminescence quantum yield (in CC(C)=O): 0.428
photoluminescence quantum yield (in CC(C)CC(C)(C)C): 0.31
photoluminescence quantum yield (in CC(C)O): 0.013
photoluminescence quantum yield (in CCCCCCCCCCCCCCCC): 0.314
photoluminescence quantum yield (in CCCCCCCCCCCCCCCCCl): 0.339
photoluminescence quantum yield (in CCOC(C)=O): 0.14
photoluminescence quantum yield (in CCOCC): 0.216
photoluminescence quantum yield (in CN(C)C=O): 0.065
photoluminescence quantum yield (in CO): 0.001
photoluminescence quantum yield (in CS(C)=O): 0.053
photoluminescence quantum yield (in Cc1ccccc1): 0.324

c1ccc(-c2nc3sc4ccccc4c3s2)nc1
photoluminescence quantum yield (in CS(C)=O): 0.82

CC(C)(C)c1ccc2c(c1)c1cc(C(C)(C)C)ccc1n2-c1ccc(-c2ccc3c(c2)C(=O)c2ccc(-c4ccc(-n5c6ccc(C(C)(C)C)cc6c6cc(C(C)(C)C)ccc65)cc4)cc2C3=O)cc1
photoluminescence quantum yield (in Cc1ccccc1): 0.6
photoluminescence quantum yield (in c1ccc2c(c1)c1ccccc1n2-c1ccc(-c2ccc(-n3c4ccccc4c4ccccc43)cc2)cc1): 0.65

CCc1c(C)[nH]c(C2=[N+]3C(=C(C)c4c(C)c(CC)c(C)n4[B-]3(F)F)c3ccccc32)c1C
photoluminescence quantum yield (in C1CCOC1): 0.27
photoluminescence quantum yield (in CC#N): 0.21
photoluminescence quantum yield (in CCCCCC): 0.93
photoluminescence quantum yield (in CO): 0.21
photoluminescence quantum yield (in Cc1ccccc1): 0.71
photoluminescence quantum yield (in ClCCl): 0.72

N#Cc1c(-n2c3ccccc3c3ccccc32)cc(N2c3ccccc3C(c3ccccc3)(c3ccccc3)c3ccccc32)cc1-n1c2ccccc2c2ccccc21
photoluminescence quantum yield (in Cc1ccccc1): 0.27

CCCCCCN1C(=O)c2cccc3cc(/N=C\c4c[nH]c5c4ccc4ccccc45)cc(c23)C1=O
photoluminescence quantum yield (in ClC(Cl)Cl): 0.073

c1cc2c3c(cccc3c1)C(N1CCOCCOCCN(C3=Nc4cccc5cccc3c45)CCOCC1)=N2
photoluminescence quantum yield (in CC#N): 0.0051

c1ccc(-c2nc(-c3ccccc3)nc(-c3cc(-n4c5ccccc5c5ncccc54)cc(-n4c5ccccc5c5ncccc54)c3)n2)cc1
photoluminescence quantum yield (in O=P(c1ccccc1)(c1ccccc1)c1ccc2oc3ccc(P(=O)(c4ccccc4)c4ccccc4)cc3c2c1): 0.21

CCn1c2ccccc2c2cc(/C=C3\C(=O)c4ccccc4S3(=O)=O)ccc21
photoluminescence quantum yield (in C1CCOC1): 0.029
photoluminescence quantum yield (in C1COCCO1): 0.025
photoluminescence quantum yield (in CC#N): 0.023
photoluminescence quantum yield (in CC(C)=O): 0.042
photoluminescence quantum yield (in CCOC(C)=O): 0.039
photoluminescence quantum yield (in CN(C)C=O): 0.033
photoluminescence quantum yield (in CO): 0.003
photoluminescence quantum yield (in CS(C)=O): 0.083
photoluminescence quantum yield (in Cc1ccccc1): 0.014
photoluminescence quantum yield (in ClC(Cl)Cl): 0.04
photoluminescence quantum yield (in ClCCl): 0.04

CCCCC(CC)CN1C(=O)c2cc(Oc3ccc(C(C)(C)C)cc3)c3c4c(Oc5ccc(OC)cc5)cc5c6c(cc(Oc7ccc(OC)cc7)c(c7c(Oc8ccc(C(C)(C)C)cc8)cc(c2c37)C1=O)c64)C(=O)N(c1c(C(C)C)cccc1C(C)C)C5=O (stereo not given)
photoluminescence quantum yield (in Cc1ccccc1): 0.57

CC(C)(C)NC(=O)c1cccc2ccc3c4ccc(F)cc4c4cc(F)ccc4c3c12
photoluminescence quantum yield (in ClCCl): 0.05
